How the values were obtained:
NCI-H1373 cells = assay: Inhibition of tumor growth by oral dosing, human NCI-H1373 lung cancer xenograft; type: in vivo, SCID mice
From the text: (§1) Example H: Inhibition of Tumor Growth by Oral Dosing with a PARP7 Inhibitor
(§2) The effect of Compound 561 on tumor growth was studied in a human NCI-H1373 lung cancer xenograft and a murine CT26 colon cancer syngeneic model.
For the NCI-H1373 study, SCID mice were inoculated subcutaneously in the right flank with NCI-H1373 cells for tumor development. After 5 days of tumor growth, mice with 89-148 mm^3 tumors were randomized into treatment groups with mean tumor volumes of 121 mm^3. The treatments were started from the next day post randomization (defined randomization day as day 0) and were treated with vehicle (50% Labrasol) or Compound 561 (62.5, 125, 250, and 500 mg/kg) once a day for 28 days by oral gavage. Tumor volumes were determined by manual calipers every 2-3 days. Mean tumor volume and SEM are plotted. QD: once a day; PO: per oral administration. Statistical significance is calculated using two-way ANOVA followed by Bonferroni post-tests in which the treatment groups were compared to vehicle control (****P<0.0001).

[1] = test system: human NCI-H1373 lung cancer xenograft; assay: Tumor growth in human NCI-H1373 lung cancer xenograft (FIG. 7A); type: in vivo; details: once daily administration
CT26 cells [2] = assay: Inhibition of tumor growth by oral dosing, murine CT26 colon cancer syngeneic model; type: in vivo; details: BALB/c mice, 125-500 mg/kg BID or 500 mg/kg QD, 21 days
From the text: as §1, §2
For the CT26 study, BALB/c mice were inoculated subcutaneously in the right flank with CT26 cells for tumor development. After 5 days of cell inoculation, mice with 36-79 mm^3 tumors were randomized into treatment groups with mean tumor volumes of 54 mm^3. The treatments were started from the next day post randomization (defined randomization day as day 0) and were treated with vehicle (25 or 50% Labrasol) or Compound 561 BID (2 times a day every 12 hours) at doses ranging from 125-500 mg/kg or QD (once a day) at 500 mg/kg for 21 days by oral gavage or needle subcutaneously. Tumor volumes were determined by manual calipers every 2-3 days. Mean tumor volume and SEM are plotted. BID: twice a day; PO: per oral administration; QD: once a day; SC: per subcutaneous administration. The first two doses for vehicle and Compound 561 500 mg/kg in the QD groups were delivered by subcutaneous injection. […] Statistical significance is calculated using two-way ANOVA followed by Bonferroni post-tests in which the treatment groups were compared to vehicle control (****P<0.0001).

[3] = test system: murine CT26 colon cancer syngeneic model; assay: Tumor growth in murine CT26 colon cancer syngeneic model (FIG. 6A-C, 7B); type: in vivo, mouse; details: once or twice daily administration, FIG. 7B
[4] = test system: panel of cancer cell lines; assay: Inhibition of cancer cell growth, 144 hours (CellTiter-Glo), GI50, Table A-3; type: cell-based; details: MDA-MIB-468 cell line, breast adenocarcinoma
Protocol: (§3) Example C: Inhibition of Cancer Cell Growth by Treatment with PARP7 Inhibitors
(§4) Table A-2 and Table A-3 (below) represents the concentration that causes 50% growth inhibition (GI50) in a panel of cancer cell lines with Compound 18B and Compound 561. Cells were plated into 384-well plates at a pre-specified density in fetal bovine serum-containing media. Cells were treated with compound or vehicle (DMSO) 24 hrs later, and a day zero plate was collected for analysis. Test compound plates were incubated continuously for 72 hrs (Table A-2) or 144 hours (Table A-3) cell growth was assessed using a luminescent cell viability assay (CellTiter-Glo, Promega). The GI50 was determined by correcting for the cell count at time zero (time of treatment) and plotting data as percent growth relative to vehicle-treated cells.

[5] = test system: RAW264.7 mouse macrophages; assay: Induction of interferon-beta levels in RAW264.7 macrophages in the presence of STING agonist DMXAA (FIG. 3); type: cell-based
CT26 cells [6] = assay: Proliferation of CT26 cells in the presence of PARP7 inhibitors (CellTiter-Glo); type: cell-based, mouse; details: 4 days incubation
Protocol: Example F: Proliferation of CT26 Cells in the Presence of PARP7 Inhibitors
CT26 cells were plated in a 384-well plate and allowed to adhere for several hours before being treated with Compound 18B. Cells were incubated with compound for 4 days prior to processing with CellTiter-Glo reagent (Promega). Luminescence was measured with a Perkin Elmer Envision and percent inhibition was calculated using the vehicle (DMSO) average as 0% inhibition. Non-linear regression analysis was performed using a 4 parameter (variable slope) fit in GraphPad Prism.

[7] = test system: NCI-H1373 lung cancer cells; assay: Inhibition of cancer cell growth in NCI-H1373 cells (FIG. 2); type: cell-based, human
[8] = test system: CT26 mouse colon cancer cells; assay: Induction of interferon-beta levels in CT26 cells in the presence of STING agonist DMXAA (FIG. 3); type: cell-based
TIPARP (PARP7) = TIPARP (PARP7) (Homo sapiens (Human), UniProt Q7Z3E1); assay: Enzymatic assay for inhibition of PARP7: displacement of biotinylated Probe A (TR-FRET); type: binding; details: TR-FRET displacement of Probe A from TIPARP
Protocol: 20 nL of a dose response curve of each test compound was spotted in black 384-well polystyrene proxiplates (Perkin Elmer) using a Mosquito (TTP Labtech). […] Reactions were incubated at 25° C. for an additional 30 min, then read on an Envision plate reader equipped with a LANCE/DELFIA top mirror (Perkin Elmer) using excitation of 320 nm and emission of 615 nm and […] with a 90 μs delay. The ratio of the 665/615 nm emission were calculated for each well to determine the amount of complex of TIPARP and Probe A in each well. […] The Hill Coefficient is normally allowed to float but may also be fixed at 1 in a 3-parameter fit. Y is the % inhibition and X is the compound concentration.

[9] = test system: panel of cancer cell lines; assay: Inhibition of cancer cell growth, 72 hrs (CellTiter-Glo), GI50, Table A-2; type: cell-based
Protocol: as §3, §4

TIPARP (PARP7), sequence (Q7Z3E1 whole entry): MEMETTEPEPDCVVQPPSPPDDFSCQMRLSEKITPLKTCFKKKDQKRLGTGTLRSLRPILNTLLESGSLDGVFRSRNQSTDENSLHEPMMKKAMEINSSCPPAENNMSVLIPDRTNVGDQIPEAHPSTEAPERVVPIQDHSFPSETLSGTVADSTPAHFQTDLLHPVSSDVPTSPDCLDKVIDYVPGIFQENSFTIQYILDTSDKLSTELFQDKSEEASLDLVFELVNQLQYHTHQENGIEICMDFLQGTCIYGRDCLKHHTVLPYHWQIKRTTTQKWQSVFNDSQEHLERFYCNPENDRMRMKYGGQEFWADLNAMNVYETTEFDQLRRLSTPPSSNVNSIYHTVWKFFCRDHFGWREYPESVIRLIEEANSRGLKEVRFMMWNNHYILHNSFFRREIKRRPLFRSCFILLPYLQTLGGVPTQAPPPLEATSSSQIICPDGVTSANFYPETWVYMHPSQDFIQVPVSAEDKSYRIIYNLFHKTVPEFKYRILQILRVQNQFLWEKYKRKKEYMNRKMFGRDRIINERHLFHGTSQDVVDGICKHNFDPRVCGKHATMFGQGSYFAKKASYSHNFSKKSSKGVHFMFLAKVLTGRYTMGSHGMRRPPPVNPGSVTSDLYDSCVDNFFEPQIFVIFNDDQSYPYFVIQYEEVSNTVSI

| GI50 [4] | IC50 (TIPARP (PARP7)) | GI50 ([9]; 72 h, GSS cell line, stomach adenocarcinoma) | GI50 ([9]; LUDLU-1, 72 h, LUDLU-1 cell line, lung squamous cell carcinoma) | SMILES | tumor regression (NCI-H1373 cells; 62.5 to 500 mg/kg once a day for 28 days, all dose levels) | tumor growth (NCI-H1373 cells; SCID mice, once daily oral gavage, 28 days) | tumor growth [1] | tumor growth (CT26 cells [2]) | tumor growth [3] | interferon-beta (IFN-β) levels [5] | proliferation in CT26 cells in vitro (CT26 cells [6]) | growth of NCI-H1373 lung cancer cells [7] | interferon-beta (IFN-β) levels [8] |
| --- | --- | --- | --- | --- | --- | --- | --- | --- | --- | --- | --- | --- | --- |
| ≥ 1000 nM |  |  |  | C[C@@H](COCCC(=O)N1CCN(c2ncc(C(F)(F)F)cn2)CC1)Nc1cn[nH]c(=O)c1C(F)(F)F [Example 561, 5-[[(2S)-1-(3-oxo-3-[4-[5-(trifluoromethyl)pyrimidin-2-yl]piperazin-1-yl]propoxy)propan-2-yl]amino]-4-(trifluoromethyl)-2,3-dihydropyridazin-3-one] | complete tumor regression | significantly reduces tumor growth | significantly reduces tumor growth | significantly reduces tumor growth | significantly reduces tumor growth |  |  |  |  |
|  | < 100 nM | 100 to 1000 nM | 100 to 1000 nM | N#Cc1ccc(N2CCN(C(=O)c3cccc(OC[C@@H]4c5ccccc5CN4c4cn[nH]c(=O)c4C(F)(F)F)c3)CC2)nc1 [Example 18B, 6-[4-[(3-[[(1S)-2-[6-Oxo-5-(trifluoromethyl)-1,6-dihydropyridazin-4-yl]-2,3-dihydro-1H-isoindol-1-yl]methoxy]phenyl)carbonyl]piperazin-1-yl]pyridine-3-carbonitrile] |  |  |  |  |  | induction of interferon-beta (IFN-β) levels | do not inhibit proliferation | dose-dependent decrease in growth | induction of interferon-beta (IFN-β) levels |
